Experimental data from ChEMBL document CHEMBL1155307, “4-Anilino-7-pyridyl-3-quinolinecarbonitriles as Src kinase inhibitors” (Bioorg Med Chem Lett, 2009).

Molecular target: Proto-oncogene tyrosine-protein kinase Src (Homo sapiens, UniProt P12931)
Experiment: Inhibition of Src

Proto-oncogene tyrosine-protein kinase Src, sequence (P12931 2-536 limits assumed): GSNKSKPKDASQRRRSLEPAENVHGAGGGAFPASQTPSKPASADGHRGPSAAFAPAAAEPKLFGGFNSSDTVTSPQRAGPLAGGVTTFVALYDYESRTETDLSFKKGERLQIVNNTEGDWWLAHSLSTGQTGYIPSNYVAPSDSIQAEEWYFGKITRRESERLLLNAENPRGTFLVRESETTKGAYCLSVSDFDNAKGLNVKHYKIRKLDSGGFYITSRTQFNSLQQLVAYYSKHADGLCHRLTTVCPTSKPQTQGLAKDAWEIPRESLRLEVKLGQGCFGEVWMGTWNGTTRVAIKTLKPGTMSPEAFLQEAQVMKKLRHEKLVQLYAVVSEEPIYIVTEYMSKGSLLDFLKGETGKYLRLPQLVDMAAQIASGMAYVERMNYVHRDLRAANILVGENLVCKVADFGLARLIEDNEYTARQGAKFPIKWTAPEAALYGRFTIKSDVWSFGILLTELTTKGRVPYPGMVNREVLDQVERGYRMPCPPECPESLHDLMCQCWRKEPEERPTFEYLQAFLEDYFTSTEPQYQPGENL

IC50: 950 nM
Structure (SMILES): COc1cc(Nc2c(C#N)cnc3cc(-c4ncccc4CN4CCOCC4)ccc23)c(Cl)cc1Cl
